# Results from ChEMBL document CHEMBL3774345, “Synthesis of new diarylamides with pyrimidinyl pyridine scaffold and evaluation of their anti-proliferative effect on cancer cell lines” (Bioorg Med Chem Lett, 2016).
# Legend:
# [1] = Cytotoxicity against human OVCAR5 cells assessed as cell growth at 10^-8 M after 24 hrs by SRB assay; assay type: functional; conditions: OVCAR-5, 24 h, read-out: Activity
# [2] = tested on: SN12C; assay: Cytotoxicity against human SN12C cells assessed as cell growth at 10^-8 M after 24 hrs by SRB assay; assay type: functional; conditions: read-out: Activity
# [3] = Cytotoxicity against human RPMI8226 cells assessed as cell growth at 10^-7 M after 24 hrs by SRB assay; assay type: functional; conditions: RPMI-8226, 24 h, read-out: Activity
# [4] = tested on: A549; assay: Cytotoxicity against human A549 cells assessed as cell growth at 10^-7 M after 24 hrs by SRB assay; assay type: functional; conditions: A549, 24 h, read-out: Activity
# [5] = tested on: NCI-H322M; assay: Cytotoxicity against human NCI-H322M cells assessed as cell growth at 10^-7 M after 24 hrs by SRB assay; assay type: functional; conditions: read-out: Activity
# [6] = Cytotoxicity against human HCC2998 cells assessed as cell growth at 10^-7 M after 24 hrs by SRB assay; assay type: functional; conditions: HCC 2998, 24 h, read-out: Activity
# [7] = Cytotoxicity against human MOLT4 cells assessed as cell growth at 10^-4 M after 24 hrs by SRB assay; assay type: functional; conditions: MOLT-4, 24 h, read-out: Activity
# [8] = tested on: EKVX; assay: Cytotoxicity against human EKVX cells assessed as cell growth at 10^-4 M after 24 hrs by SRB assay; assay type: functional; conditions: read-out: Activity
# [9] = Cytotoxicity against human HOP62 cells assessed as cell growth at 10^-4 M after 24 hrs by SRB assay; assay type: functional; conditions: HOP-62, 24 h, read-out: Activity
# [10] = Cytotoxicity against human SW620 cells assessed as cell growth at 10^-7 M after 24 hrs by SRB assay; assay type: functional; conditions: SW-620, 24 h, read-out: Activity
# [11] = tested on: HT-29; assay: Cytotoxicity against human HT-29 cells after 24 hrs by SRB assay; assay type: functional; conditions: HT-29, 24 h
# [12] = tested on: Malme-3M; assay: Cytotoxicity against human MALME-3M cells after 24 hrs by SRB assay; assay type: functional, cell-based
# [13] = tested on: MDA-MB-231; assay: Cytotoxicity against human MDA-MB-231 cells assessed as cell growth at 10^-7 M after 24 hrs by SRB assay; assay type: functional; conditions: MDA-MB-231, 24 h, read-out: Activity
# [14] = Cytotoxicity against human BT549 cells assessed as cell growth at 10^-7 M after 24 hrs by SRB assay; assay type: functional; conditions: BT-549, 24 h, read-out: Activity
# [15] = tested on: CCRF-CEM; assay: Cytotoxicity against human CCRF-CEM cells assessed as cell growth at 10^-6 M after 24 hrs by SRB assay; assay type: functional; conditions: read-out: Activity
# [16] = tested on: SK-MEL-2; assay: Cytotoxicity against human SK-MEL-2 cells assessed as cell growth at 10^-4 M after 24 hrs by SRB assay; assay type: functional; conditions: SK-MEL-2, 24 h, read-out: Activity
# [17] = tested on: SK-MEL-28; assay: Cytotoxicity against human SK-MEL-28 cells assessed as cell growth at 10^-4 M after 24 hrs by SRB assay; assay type: functional; conditions: SK-MEL-28, 24 h, read-out: Activity
# [18] = Cytotoxicity against human OVCAR5 cells assessed as cell growth at 10^-4 M after 24 hrs by SRB assay; assay type: functional; conditions: OVCAR-5, 24 h, read-out: Activity
# [19] = Cytotoxicity against human RXF393 cells assessed as cell growth at 10^-4 M after 24 hrs by SRB assay; assay type: functional; conditions: RXF 393, 24 h, read-out: Activity
# [20] = Cytotoxicity against human DU145 cells assessed as cell growth at 10^-4 M after 24 hrs by SRB assay; assay type: functional; conditions: DU-145, 24 h, read-out: Activity
# [21] = Cytotoxicity against human HCT116 cells assessed as cell growth at 10^-6 M after 24 hrs by SRB assay; assay type: functional; conditions: HCT-116, 24 h, read-out: Activity
# [22] = tested on: KM12; assay: Cytotoxicity against human KM12 cells assessed as cell growth at 10^-6 M after 24 hrs by SRB assay; assay type: functional; conditions: KM12, 24 h, read-out: Activity
# [23] = Cytotoxicity against human UO31 cells assessed as cell growth at 10^-6 M after 24 hrs by SRB assay; assay type: functional; conditions: UO-31, 24 h, read-out: Activity
# [24] = Cytotoxicity against human RXF393 cells after 24 hrs by SRB assay; assay type: functional, cell-based; conditions: RXF 393, 24 h
# [25] = Cytotoxicity against human DU145 cells after 24 hrs by SRB assay; assay type: functional; conditions: DU-145, 24 h
# [26] = tested on: SR; assay: Cytotoxicity against human SR cells after 24 hrs by SRB assay; assay type: functional
# [27] = Cytotoxicity against human HCT116 cells assessed as cell growth at 10^-8 M after 24 hrs by SRB assay; assay type: functional; conditions: HCT-116, 24 h, read-out: Activity
# [28] = tested on: SK-MEL-2; assay: Cytotoxicity against human SK-MEL-2 cells assessed as cell growth at 10^-8 M after 24 hrs by SRB assay; assay type: functional; conditions: SK-MEL-2, 24 h, read-out: Activity
# [29] = tested on: HT-29; assay: Cytotoxicity against human HT-29 cells assessed as cell growth at 10^-5 M after 24 hrs by SRB assay; assay type: functional; conditions: HT-29, 24 h, read-out: Activity
# [30] = Cytotoxicity against human SF295 cells assessed as cell growth at 10^-5 M after 24 hrs by SRB assay; assay type: functional; conditions: SF-295, 24 h, read-out: Activity
# [31] = Cytotoxicity against human SNB19 cells assessed as cell growth at 10^-5 M after 24 hrs by SRB assay; assay type: functional; conditions: SNB-19, 24 h, read-out: Activity
# [32] = Cytotoxicity against human LOXIMVI cells assessed as cell growth at 10^-5 M after 24 hrs by SRB assay; assay type: functional; conditions: LOX IMVI, read-out: Activity
# [33] = Cytotoxicity against human NCI-ADR-RES cells assessed as cell growth at 10^-5 M after 24 hrs by SRB assay; assay type: functional; conditions: read-out: Activity
# [34] = Cytotoxicity against human TK10 cells assessed as cell growth at 10^-5 M after 24 hrs by SRB assay; assay type: functional; conditions: TK-10, 24 h, read-out: Activity
# [35] = Cytotoxicity against human Hs 578T cells assessed as cell growth at 10^-5 M after 24 hrs by SRB assay; assay type: functional; conditions: read-out: Activity
# [36] = read-out: LC50 (the source's name)
# [37] = read-out: pLC50 (the source's name) (converted)
structure (smiles),measurement,setting,value
O=C(Nc1cc(-c2cccnc2)nc(NCCCN2CCOCC2)n1)c1cc(Br)cc(C(F)(F)F)c1,growth at 0.01 µM,[1],92%
same,growth at 0.01 µM,[2],95%
same,growth at 0.1 µM,[3],104%
same,growth at 0.1 µM,[4],109%
same,growth at 0.1 µM,[5],107%
same,growth at 0.1 µM,[6],100%
same,growth at 100 µM,[7],-67%
same,growth at 100 µM,[8],-89%
same,growth at 100 µM,[9],-97%
same,growth at 0.1 µM,[10],96%
same,GI50,[11]; read-out: GI50,2.12 µM
same,CC50,[11]; [36],16.1 µM
same,TGI,[11]; read-out: TGI,4.95 µM
same,GI50,[11]; read-out: pGI50 (converted),2.14 µM
same,CC50,[11]; [37],16.2 µM
same,TGI,[11]; read-out: pTGI (converted),4.9 µM
same,IC50,[12],1.76 µM
same,GI50,[12]; read-out: GI50,1.76 µM
same,CC50,[12]; [36],7.28 µM
same,TGI,[12]; read-out: TGI,3.58 µM
same,GI50,[12]; read-out: pGI50 (converted),1.78 µM
same,CC50,[12]; [37],7.24 µM
same,TGI,[12]; read-out: pTGI (converted),3.55 µM
same,growth at 0.1 µM,[13],87%
same,growth at 0.1 µM,[14],97%
same,growth at 1 µM,[15],103%
same,growth at 100 µM,[16],-89%
same,growth at 100 µM,[17],-77%
same,growth at 100 µM,[18],-67%
same,growth at 100 µM,[19],-86%
same,growth at 100 µM,[20],-100%
same,growth at 1 µM,[21],94%
same,growth at 1 µM,[22],96%
same,growth at 1 µM,[23],69%
same,IC50,[24],1.8 µM
same,GI50,[24]; read-out: GI50,1.8 µM
same,CC50,[24]; [36],7.23 µM
same,TGI,[24]; read-out: TGI,3.61 µM
same,GI50,[24]; read-out: pGI50 (converted),1.82 µM
same,CC50,[24]; [37],7.24 µM
same,TGI,[24]; read-out: pTGI (converted),3.63 µM
same,GI50,[25]; read-out: GI50,6.7 µM
same,CC50,[25]; [36],43.7 µM
same,TGI,[25]; read-out: TGI,19.1 µM
same,GI50,[25]; read-out: pGI50 (converted),6.76 µM
same,CC50,[25]; [37],43.7 µM
same,TGI,[25]; read-out: pTGI (converted),19.1 µM
same,GI50,[26]; read-out: GI50,2.6 µM
same,CC50,[26]; [36],> 100 µM
same,TGI,[26]; read-out: TGI,41.7 µM
same,GI50,[26]; read-out: pGI50 (converted),2.63 µM
same,CC50,[26]; [37],> 100 µM
same,TGI,[26]; read-out: pTGI (converted),41.7 µM
same,growth at 0.01 µM,[27],102%
same,growth at 0.01 µM,[28],109%
same,growth at 10 µM,[29],-41%
same,growth at 10 µM,[30],-66%
same,growth at 10 µM,[31],-33%
same,growth at 10 µM,[32],-93%
same,growth at 10 µM,[33],-4%
same,growth at 10 µM,[34],34%
same,growth at 10 µM,[35],-7%
